# Laboratory results taken from patent publication EP4650362A1, “NEUROPROTECTIVE PSD-95 POLYPEPTIDE INHIBITOR AND USE THEREOF” (Beijing Tuo Jie Biopharmaceutical Co. Ltd., priority 2023, dated 2024).
# Like-named read-outs stand apart in the source and are kept apart here. Non-standard residues stand in square brackets, D forms with d. Residues, ends and D or L forms follow the SMILES beside them. Tle = CC(C)(C)[C@H](N)C(=O)O; Dab = NCC[C@H](N)C(=O)O; Aib = CC(C)(N)C(=O)O
# Experiments:
# [1] = test system: histamine release; experiment: ability to induce histamine release in rats (plasma); assay type: in vivo, SD rats; set-up: Histamine levels (sums of detected histamine and 3-methylhistamine): unit not given here; settings: for Histamine levels (sums of detected histamine and 3-methylhistamine): rat plasma
# Method: With male SD rats as test animals, the ability of a polypeptide compound administered via single intravenous bolus injection to induce histamine release in rats (plasma) was studied.
# This test was performed synchronously with Test Examples 3.6, with three animals per group and blood collection time points set as follows: before administration, and 2 min, 8 min, and 15 min after the end of intravenous bolus injection.
# The histamine and 3-methylhistamine levels at each time point were determined by LC-MS/MS. LC-MS detection of compounds: (1) Chromatographic conditions: mobile phase A: acetonitrile/water/100 mM ammonium acetate, 50/45/5 (v/v/v), 2% FA; mobile phase B: acetonitrile/100 mM ammonium acetate, 95/5 (v/v), 2% FA; flow rate: 0.4 mL/min; chromatography column: Waters BEH HILIC 1.7 µm, 2.1 × 150 mm; column temperature: 50 °C; injection volume: 20 µL. (2) Mass-spectrometric conditions: The mass spectrometry analysis used an electrospray ionization (ESI) source, a positive ion analysis mode, and a multi-reaction monitoring (MRM) scan mode.
# Sample pretreatment: A 30 µL plasma sample was taken and added to 200 µL of an acetonitrile solution containing tetradeuterated histamine (D4-histamine, 100 ng/mL). The mixture was vortexed for 1 min and then centrifuged at 5800 rpm for 10 min, and 100 µL of the supernatant was transferred to a sample tray and injected into an instrument for analysis. […] Table 7. Histamine levels at different time points
# [2] = test system: rat red blood cell suspensions; experiment: hemolysis risk test in rat whole blood; assay type: cell-based; settings: for Hemolysis rate (%): Rat, 37 °C 1 h
# Excerpt: Hemolysis refers to the phenomenon in which the membrane of erythrocytes is destroyed, along with increased transparency and a dark red appearance. Certain pharmaceutical ingredients, excipients, etc. may contain hemolytic components, which may cause hemolysis in the human body and cause adverse reactions such as local swelling and blood circulation dysfunction. On the basis of the principle that the hemoglobin released from lysed red blood cells has absorption in the visible light wave band, test compound solutions were added to rat red blood cell suspensions, and after incubation, the degrees of hemolysis were determined using a microplate reader.
# This test example assessed whether a polypeptide compound causes hemolytic reactions in rat, rabbit, and human whole blood.
# Preparation of red blood cell suspension: 100 µL of fresh whole blood was collected, and 900 µL of 1× PBS solution was then added. The mixture was shaken on a plate shaker at 30 rpm for 5 min and then centrifuged at 1000 g for 5 min, and the supernatant was discarded. The above washing step was repeated until the supernatant no longer appeared red. The suspension was set aside for later use.
# Preparation of test polypeptide solutions: An appropriate amount of 1× PBS solution was added to a powdered polypeptide, and the polypeptide was dissolved to form a standard stock solution. […] Meanwhile, blank 1× PBS was used as a negative control, and a 1× PBS solution containing 0.1% Triton X-100 was used as a positive control.
# Incubation: A test solution (500 µL) was added to the red blood cell suspension, and then the mixture was well shaken on a plate shaker at 30 rpm for 5 min, incubated at 37 °C for 1 h, and centrifuged at 1000 g for 5 min.
# 100 µL of the supernatant was transferred to a single well of a microplate. The absorbance at 540 nm was measured using a SpectraMax M5 microplate reader, and data analysis was performed using GraphPad Prism 9. The hemolysis rate (%) was calculated using the formula: (test sample absorbance - negative control absorbance) / (positive control absorbance - negative control absorbance) × 100%. A rate of less than 5% indicates the absence of hemolysis, while a rate of greater than 5% indicates the presence of hemolysis. Table 3. Testing of the hemolysis risk of the polypeptide compound
# [3] = test system: histamine release; experiment: ability to induce histamine release in beagle dogs (plasma); assay type: in vivo; set-up: Histamine levels (sums of detected histamine and 3-methylhistamine): unit not given here; settings: for Histamine levels (sums of detected histamine and 3-methylhistamine): beagle dog plasma
# Method: With beagle dogs as test animals, the ability of a polypeptide compound administered via single intravenous infusion to induce histamine release in dogs (plasma) was studied.
# This test was performed synchronously with Test Examples 3.9, with four animals per group and blood collection time points set as follows: before administration (0 h), and 2 min, 5 min, and 15 min after the end of intravenous infusion.
# Sample analysis and data processing were performed with reference to the methods in 3.7.3. Table 10. Histamine levels at different time points
# [4] = pharmacokinetic study in beagle dogs, single intravenous infusion; assay type: in vivo
# Method: With standard beagle dogs as test animals, the pharmacokinetic behavior of a polypeptide compound administered via single intravenous infusion in beagle dogs (plasma) was studied.
# For polypeptide compound 22, two dose groups were set: 1.2 nmol/g and 0.4 nmol/g. For NA-1, one dose group was set: 1.2 nmol/g. Each group consisted of four animals, with an equal number of males and females. The polypeptide compound was dissolved in 1× PBS, and the polypeptide compound solution was then administered via intravenous infusion over 10 min. The blood collection time points were as follows: before infusion (0 h), 5 min after the start of bolus injection, and 0 min, 2 min, 5 min, 10 min, 15 min, 30 min, 1 h, 2 h, 4 h, 8 h, and 24 h after the end of bolus injection. At each time point, 0.5 mL of blood was collected and transferred to an EDTA-K2 anticoagulation centrifuge tube. Meanwhile, 50 µL of a protease inhibitor was added. After thorough mixing, the mixture was centrifuged at 2000 g for 10 min (4 °C), and the plasma was separated within 1 h, aliquoted into cryopreservation tubes, and stored at -60 to -90 °C. The blood collection-to-centrifugation process was performed under ice bath conditions.
# The plasma concentrations of the test compounds were determined using the method in Test Example 3.4.3. Plasma concentration-time curves were plotted, and the pharmacokinetic parameters were calculated using PKSolver software.
# [5] = beagle dogs, intravenous infusion over 10 min, 0.4 nmol/g, Male
# [6] = beagle dogs, intravenous infusion over 10 min, 1.2 nmol/g, Female
# [7] = beagle dogs, intravenous infusion over 10 min, 1.2 nmol/g, Male
# [8] = dog, plasma, beagle dogs, intravenous infusion over 10 min, 0.4 nmol/g, Female
# [9] = dog, plasma, beagle dogs, intravenous infusion over 10 min, 0.4 nmol/g, Male
# [10] = dog, plasma, beagle dogs, intravenous infusion over 10 min, 1.2 nmol/g, Female
# [11] = dog, plasma, beagle dogs, intravenous infusion over 10 min, 1.2 nmol/g, Male
compound,measurement,setting,value
"CC(C)[C@H](NC(=O)[C@H](CC(=O)O)NC(=O)[C@@H](NC(=O)[C@@H](NC(=O)[C@@H](NC(=O)[C@@H](NC(=O)[C@H](CCN)NC(=O)C(C)(C)NC(=O)CNC(=O)[C@@H](CCCNC(=N)N)NC(=O)[C@@H](CCCNC(=N)N)NC(=O)[C@@H](CCCNC(=N)N)NC(=O)[C@@H](CCC(N)=O)NC(=O)[C@@H](CCCNC(=N)N)NC(=O)[C@@H](CCCNC(=N)N)NC(=O)[C@@H](CCCCN)NC(=O)[C@@H](CCCCN)NC(=O)[C@@H](CCCNC(=N)N)NC(=O)CNC(=O)[C@H](N)Cc1ccc(O)cc1)[C@@H](C)O)C(C)(C)C)C(C)(C)C)[C@@H](C)O)C(=O)O [Polypeptide compound 14, y-G-r-k-k-r-r-q-r-r-r-G-Aib-Dab-T-Tle-Tle-T-D-V] (H-[dY]G[dR][dK][dK][dR][dR][dQ][dR][dR][dR]G[Aib][Dab]T[Tle][Tle]TDV-OH)",Histamine levels (sums of detected histamine and 3-methylhistamine),"[1]; 0.3 nmol/g, 0 min (before administration)",34.1±21.7
same,Histamine levels (sums of detected histamine and 3-methylhistamine),"[1]; 0.3 nmol/g, 2 min after the end of intravenous bolus injection",18.2±5.2
same,Histamine levels (sums of detected histamine and 3-methylhistamine),"[1]; 0.3 nmol/g, 8 min after the end of intravenous bolus injection",38.7±16.8
same,Histamine levels (sums of detected histamine and 3-methylhistamine),"[1]; 0.3 nmol/g, 15 min after the end of intravenous bolus injection",45.3±3.3
same,Histamine levels (sums of detected histamine and 3-methylhistamine),"[1]; 1 nmol/g, 0 min (before administration)",45.5±14.4
same,Histamine levels (sums of detected histamine and 3-methylhistamine),"[1]; 1 nmol/g, 2 min after the end of intravenous bolus injection",41.9±23.3
same,Histamine levels (sums of detected histamine and 3-methylhistamine),"[1]; 1 nmol/g, 8 min after the end of intravenous bolus injection",59.4±53.5
same,Histamine levels (sums of detected histamine and 3-methylhistamine),"[1]; 1 nmol/g, 15 min after the end of intravenous bolus injection",71.4±38.7
same,Histamine levels (sums of detected histamine and 3-methylhistamine),"[1]; 3 nmol/g, 0 min (before administration)",50.2±28.7
same,Histamine levels (sums of detected histamine and 3-methylhistamine),"[1]; 3 nmol/g, 2 min after the end of intravenous bolus injection",754.7±448.6
same,Histamine levels (sums of detected histamine and 3-methylhistamine),"[1]; 3 nmol/g, 8 min after the end of intravenous bolus injection",558.0±405.6
same,Histamine levels (sums of detected histamine and 3-methylhistamine),"[1]; 3 nmol/g, 15 min after the end of intravenous bolus injection",265.3±145.7
same,increase in histamine levels,"[1]; rats, medium (1 nmol/g) or low (0.3 nmol/g) dose, within 15 min",no significant increase in histamine levels
same,peak histamine release relative to NA-1,"[1]; rats, same high dose (3 nmol/g), 2 min",nearly twice that of NA-1
same,Hemolysis rate (%),[2]; 1.0 µM,0.11%
same,Hemolysis rate (%),[2]; 2.5 µM,0.17%
same,Hemolysis rate (%),[2]; 5.0 µM,-0.11%
same,Hemolysis rate (%),[2]; 10 µM,0.00%
same,Hemolysis rate (%),[2]; 25 µM,-0.16%
same,Hemolysis rate (%),[2]; 50 µM,0.12%
same,hemolysis rates,"[2]; rat whole blood, concentration range of 1 to 50 µM",less than 5%
"CC(C)[C@H](NC(=O)[C@H](CC(=O)O)NC(=O)[C@@H](NC(=O)[C@@H](NC(=O)[C@@H](NC(=O)[C@@H](NC(=O)[C@H](CCN)NC(=O)C(C)(C)NC(=O)CNC(=O)[C@@H](CCCNC(=N)N)NC(=O)[C@H](CCCNC(=N)N)NC(=O)[C@H](CCCNC(=N)N)NC(=O)[C@H](CCC(N)=O)NC(=O)[C@@H](CCCNC(=N)N)NC(=O)[C@H](CCCNC(=N)N)NC(=O)[C@H](CCCCN)NC(=O)[C@H](CCCCN)NC(=O)[C@H](N)CCCNC(=N)N)[C@@H](C)O)C(C)(C)C)C(C)(C)C)[C@@H](C)O)C(=O)O [Polypeptide compound 22, r-K-K-R-r-Q-R-R-r-G-Aib-Dab-T-Tle-Tle-T-D-V] (H-[dR]KKR[dR]QRR[dR]G[Aib][Dab]T[Tle][Tle]TDV-OH)",Histamine levels (sums of detected histamine and 3-methylhistamine),"[3]; 0.4 nmol/g, 0 min (before administration)",6.28±5.01
same,Histamine levels (sums of detected histamine and 3-methylhistamine),"[3]; 0.4 nmol/g, 2 min after the end of intravenous infusion",9.45±7.38
same,Histamine levels (sums of detected histamine and 3-methylhistamine),"[3]; 0.4 nmol/g, 5 min after the end of intravenous infusion",11.70±8.39
same,Histamine levels (sums of detected histamine and 3-methylhistamine),"[3]; 0.4 nmol/g, 15 min after the end of intravenous infusion",7.97±2.75
same,Histamine levels (sums of detected histamine and 3-methylhistamine),"[3]; 1.2 nmol/g, 0 min (before administration)",7.06±4.14
same,Histamine levels (sums of detected histamine and 3-methylhistamine),"[3]; 1.2 nmol/g, 2 min after the end of intravenous infusion",12.71±10.47
same,Histamine levels (sums of detected histamine and 3-methylhistamine),"[3]; 1.2 nmol/g, 5 min after the end of intravenous infusion",6.24±1.78
same,Histamine levels (sums of detected histamine and 3-methylhistamine),"[3]; 1.2 nmol/g, 15 min after the end of intravenous infusion",5.81±1.44
same,changes in histamine levels compared to before administration,"[3]; beagle dogs, both doses (0.4 and 1.2 nmol/g)",no significant changes in histamine levels
same,AUClast/dose,"[4]; beagle dogs, intravenous infusion over 10 min, 0.4 nmol/g, Female",5730
same,AUClast/dose,[4]; [5],4513
same,Tmax,[4]; [5],0.17 h
same,AUClast/dose,[4]; [6],6558
same,T1/2,[4]; [6],4.25 h
same,AUClast/dose,[4]; [7],8183
same,T1/2,[4]; [7],5.90 h
same,Tmax,[4]; [7],0.18 h
same,half-life,"[4]; both sexes, beagle, dog, in vivo, iv, dogs, same dose (1.2 nmol/g), read-out: average T1/2 (converted)",5.1 h
same,AUC(0-inf),[4]; [8],5890 ng·h/mL
same,Cmax,[4]; [8],3930 ng/mL
same,MRT,[4]; [8],3.66 h
same,half-life,"[4]; dog, plasma, beagle dogs, intravenous infusion over 10 min, 0.4 nmol/g, Female, read-out: T1/2 (converted)",2.84 h
same,Tmax,"[4]; dog, plasma, beagle dogs, intravenous infusion over 10 min, 0.4 nmol/g, Female, read-out: Tmax",0.17 h
same,AUC(0-inf),[4]; [9],5170 ng·h/mL
same,Cmax,[4]; [9],2320 ng/mL
same,MRT,[4]; [9],4.61 h
same,half-life,"[4]; dog, plasma, beagle dogs, intravenous infusion over 10 min, 0.4 nmol/g, Male, read-out: T1/2 (converted)",3.36 h
same,AUC(0-inf),[4]; [10],18000 ng·h/mL
same,Cmax,[4]; [10],8130 ng/mL
same,MRT,[4]; [10],4.91 h
same,Tmax,"[4]; dog, plasma, beagle dogs, intravenous infusion over 10 min, 1.2 nmol/g, Female, read-out: Tmax",0.18 h
same,AUC(0-inf),[4]; [11],23500 ng·h/mL
same,Cmax,[4]; [11],7680 ng/mL
same,MRT,[4]; [11],7.03 h
same,"average AUC, times that of NA-1","[4]; dogs, same dose (1.2 nmol/g)",21.3 times
same,"average Cmax, times that of NA-1","[4]; dogs, same dose (1.2 nmol/g)",1.3 times
